What all share (format): cell-based
For one experiment, the target named is P2X7 receptor (hP2X7) (Homo sapiens (Human), UniProt Q99572). As to the kind of experiment: Screen Quest Fluo-8 No Wash Calcium Assay (Bz-ATP-induced Ca2+ influx, FLIPR TETRA). The following applies: HEK-293 cells stably transfected with P2X7 receptor, Fluo-8 calcium, Low Divalent Cation Assay Buffer. The method, boiled down:
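Read-out is Fluo-8 NW fluorescence recorded over a 5-min kinetic window, reporting Bz-ATP-evoked Ca2+ entry. Cells: HEK-293 stably expressing the P2X7 receptor, dye-loaded for 1 h at room temperature before compound injection.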

Experiment [1] deals with T1, P2X7 receptor (Homo sapiens (Human), UniProt Q99572). As to the kind of experiment: YO-PRO-1 Uptake Assay (large pore form, Bz-ATP stimulated). The following applies: HEK-293 cells stably transfected with P2X7 receptor; Bz-ATP EC80 (30 μM); 5 μM YO-PRO-1. Put shortly:
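IC50 values derive from percent inhibition versus A438079, using large-pore YO-PRO-1 (5 μM) entry into P2X7-transfected HEK-293 cells. Buffer held 0.3 mM Ca2+ and no Mg2+; after 5 min with test compound, cells were challenged with Bz-ATP at EC80 (30 μM, 3× concentration) and fluorescence recorded 60 min.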

Experiment [2] has as its target T1, P2X7 receptor. As to the kind of experiment: human P2X7 channel assay by automated patch-clamp (QPatch 16X). The following applies: HEK-293 cells expressing P2X7 channels, 100 microM BzATP, held at -80 mV, read-out: hP2X7 (IC50; nM). The method, then:
In order to directly monitor the block of P2X7 channel, an electrophysiological assay was developed and implemented on the QPatch 16X automated electrophysiology instrument.
HEK-293 cells expressing the P2X7 channels were cultured in modified EMEM.
72 hours before experiment, 5 million cells were seeded onto T225 flasks. Just before the experiment cells were washed twice, detached from the flask with trypsin-EDTA, re-suspended in the suspension solution and placed on the QPatch 16x.
The compounds (20 mM in a 100% DMSO) stored at −20° C. were prepared the day of the experiment (a first dilution 1:20 in 100% DMSO to prepare a 1 mM stock solution, then a 1 microM solution in external solution+a serial dilution 1:10).
The standard whole-cell voltage clamp experiments were performed at room temperature. For these experiments the multihole technology was used and the data were sampled at 2 KHz.
The intracellular solution contained (mM) 135 CsF, 10 NaCl, 1 EGTA, 10 HEPES, (pH 7.2 with CsOH) whereas the extracellular contained (mM) 145 NaCl, 4 KCl, 0.5 MgCl2, 1 CaCl2, 10 HEPES, 10 Glc (pH 7.4 with NaOH).
After establishment of the seal and the passage in the whole cell configuration, the cells were held at −80 mV. The P2XR7 current was evoked by applying 100 microM of BzATP alone (4 times) and then in the presence increasing concentrations of the compound under investigation (1, 10, 100 and 1000 nM).
The pre-incubation periods 5 to 8 contain increasing concentrations of the compound of interest (1, 10, 100 and 1000 nM), as illustrated in Figure (application protocol).
The maximal inward current evoked by BzATP in absence or presence of increasing concentrations of the compounds under investigation was measured and normalized.
Y: normalized response, 100% down to 0%, decreasing as X increases.
Log IC50: same log units as X
HillSlope: slope factor or HS, unitless

We go through 19 molecules from patent US9718812B2, “Substituted thiazole or oxazole P2X7 receptor antagonists” (Axxam S.P.A., priority 2014, dated 2017).

T1 sequence (Q99572 whole entry): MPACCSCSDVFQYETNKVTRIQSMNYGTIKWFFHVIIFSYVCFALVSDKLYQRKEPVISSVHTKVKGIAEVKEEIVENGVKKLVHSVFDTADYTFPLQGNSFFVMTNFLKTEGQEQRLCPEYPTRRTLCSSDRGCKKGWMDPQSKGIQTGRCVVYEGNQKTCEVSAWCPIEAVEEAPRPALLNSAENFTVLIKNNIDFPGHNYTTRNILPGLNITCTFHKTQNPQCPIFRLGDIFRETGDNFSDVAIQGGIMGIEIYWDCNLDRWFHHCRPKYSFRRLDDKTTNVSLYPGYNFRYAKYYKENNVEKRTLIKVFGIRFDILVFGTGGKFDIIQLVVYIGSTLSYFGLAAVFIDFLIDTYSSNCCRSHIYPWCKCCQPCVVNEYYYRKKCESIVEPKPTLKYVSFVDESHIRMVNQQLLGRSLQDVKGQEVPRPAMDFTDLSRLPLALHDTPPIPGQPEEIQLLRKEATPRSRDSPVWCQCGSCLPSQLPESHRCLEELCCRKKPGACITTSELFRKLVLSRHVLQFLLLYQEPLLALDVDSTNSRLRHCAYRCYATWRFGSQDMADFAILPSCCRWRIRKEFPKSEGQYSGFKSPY
Sequence of P2X7 receptor (hP2X7) (Q99572 whole entry): as above

For the molecule `Cc1ncsc1C(CNC(=O)c1cc(-c2ncc(F)cn2)ccc1F)N1CCC(F)(F)CC1` (centres unmarked) [Compound 70, N-[2-(4,4-difluoropiperidin-1-yl)-2-(4-methyl-1,3-thiazol-5-yl)ethyl]-2-fluoro-5-(5-fluoropyrimidin-2-yl)benzamide], the IC50 amounted to 32 nM at P2X7 receptor (hP2X7), 183 nM at P2X7 receptor [1] and 58.4 nM on P2X7 receptor [2].

As for `Cc1ncsc1C(CNC(=O)c1cc(-c2cnccn2)ccc1Cl)N1CCC(F)(F)CC1` (centres unmarked) [Compound 72, 2-chloro-N-[2-(4,4-difluoropiperidin-1-yl)-2-(4-methyl-1,3-thiazol-5-yl)ethyl]-5-(pyrazin-2-yl)benzamide], the results for the concentration for half-maximal inhibition (IC50) on P2X7 receptor (hP2X7), against P2X7 receptor [1] and on P2X7 receptor [2] were 30 nM, 60 nM and 78.1 nM, respectively.

As for `Cc1ncsc1C(CNC(=O)c1c(F)cccc1Cl)N1CCC(OCc2ccccc2)CC1` (centres unmarked) [Compound 59, N-{2-[4-(benzyloxy)piperidin-1-yl]-2-(4-methyl-1,3-thiazol-5-yl)ethyl}-2-chloro-6-fluorobenzamide], the IC50 at P2X7 receptor (hP2X7) came out at 242 nM; against P2X7 receptor [1] it was 55 nM; on P2X7 receptor [2], 69.2 nM.

Turning to `O=C(NCC(c1cnc(C2CC2)s1)N1CCC(F)(F)CC1)c1c(F)cccc1Cl` (centres unmarked) [Compound 88, 2-chloro-N-[2-(2-cyclopropyl-1,3-thiazol-5-yl)-2-(4,4-difluoropiperidin-1-yl)ethyl]-6-fluorobenzamide], the results for the IC50 at P2X7 receptor (hP2X7), on P2X7 receptor [1] and at P2X7 receptor [2] were 36 nM, 28 nM and 52.1 nM, respectively.

Take `O=C(NCC(c1scnc1C(F)(F)F)N1CCC(F)(F)CC1)c1c(F)cccc1Cl` (centres unmarked) [Compound 67, 2-chloro-N-[2-(4,4-difluoropiperidin-1-yl)-2-[4-(trifluoromethyl)-1,3-thiazol-5-yl]ethyl]-6-fluorobenzamide]: the IC50 stood at 108 nM at P2X7 receptor (hP2X7), 287 nM against P2X7 receptor [1] and 117 nM on P2X7 receptor [2].

As to `Cc1ncsc1C(CN(C)C(=O)c1cc(-c2ncc(F)cn2)ccc1Cl)N1CCC(F)(F)CC1` (centres unmarked) [Compound 77, 2-chloro-N-[2-(4,4-difluoropiperidin-1-yl)-2-(4-methyl-1,3-thiazol-5-yl)ethyl]-5-(5-fluoropyrimidin-2-yl)-N-], the results for the IC50 on P2X7 receptor (hP2X7) and at P2X7 receptor [2] were 1760 nM and 183 nM, respectively.

As to `Cc1ncsc1C(CNC(=O)c1c(F)cccc1Cl)N1CCc2ccccc2C1` (centres unmarked) [Compound 29, 2-chloro-6-fluoro-N-[2-(4-methyl-1,3-thiazol-5-yl)-2-(1,2,3,4-tetrahydroisoquinolin-2-yl)ethyl]benzamide], the half-inhibitory concentration (IC50) at P2X7 receptor (hP2X7) came out at 130 nM; against P2X7 receptor [1], 90 nM; at P2X7 receptor [2] it was 36.1 nM.

As for `O=C(NCC(c1scnc1C(F)F)N1CCC(F)(F)CC1)c1cc(-c2ncc(F)cn2)ccc1Cl` (centres unmarked) [Compound 102, 2-chloro-N-{2-[4-(difluoromethyl)-1,3-thiazol-5-yl]-2-(4,4-difluoropiperidin-1-yl)ethyl}-5-(5-fluoropyrimidin-2-yl)benzamide], the results for the IC50 at P2X7 receptor (hP2X7), at P2X7 receptor [1] and on P2X7 receptor [2] were 60 nM, 34 nM and 57.1 nM, respectively.

For the molecule `Cc1ncsc1C(CNC(=O)c1c(F)cccc1Cl)N1CCOCC1` (centres unmarked) [Compound 35, 2-chloro-6-fluoro-N-[2-(4-methyl-1,3-thiazol-5-yl)-2-(morpholin-4-yl)ethyl]benzamide], the concentration for half-maximal inhibition (IC50) at P2X7 receptor (hP2X7) was 469 nM; against P2X7 receptor [1] it was 4080 nM; on P2X7 receptor [2] it was 947 nM.

With `Cc1ncc(C(CNC(=O)c2cc(-c3ncc(F)cn3)ccc2Cl)N2CCC(F)(F)CC2)s1` (single isomer, unassigned; (+)) [Compound 127, (+)-2-chloro-N-[2-(4,4-difluoro-piperidin-1-yl)-2-(2-methylthiazol-5-yl)ethyl]-5-(5-fluoropyrimidin-2-yl)benzamide], the IC50 was determined as 73 nM at P2X7 receptor (hP2X7), 22 nM against P2X7 receptor [1] and 65.7 nM on P2X7 receptor [2].

As for `Cc1ncoc1C(CNC(=O)c1ccc(-c2ncc(F)cn2)cc1Cl)N1CCc2ccccc2C1` (centres unmarked) [Compound 57, 2-chloro-4-(5-fluoropyrimidin-2-yl)-N-[2-(4-methyl-1,3-oxazol-5-yl)-2-(1,2,3,4-tetrahydroisoquinolin-2-yl)ethyl]benzamide], the IC50 at P2X7 receptor (hP2X7) is 214 nM; at P2X7 receptor [1] it was 197 nM; on P2X7 receptor [2], 71 nM.

In the case of `O=C(NCC(c1scnc1C(F)(F)F)N1CCC(F)(F)CC1)c1cc(-c2ncc(F)cn2)ccc1Cl` (centres unmarked) [Compound 68], the IC50 is 103 nM on P2X7 receptor (hP2X7), 181 nM on P2X7 receptor [1] and 63.1 nM on P2X7 receptor [2].

For `Cc1ncc(C(CNC(=O)c2c(C)cccc2Cl)N2CCC(F)(F)CC2)s1` (centres unmarked) [Compound 39, 2-chloro-N-[2-(4,4-difluoropiperidin-1-yl)-2-(2-methyl-1,3-thiazol-5-yl)ethyl]-6-methylbenzamide], the IC50 is 28 nM at P2X7 receptor (hP2X7), 18 nM against P2X7 receptor [1] and 61.9 nM on P2X7 receptor [2].

Take `Cc1ncc(C(CNC(=O)c2cc(-c3ncc(F)cn3)ccc2Cl)N2CCC(F)(F)CC2)s1` (racemic) [Compound 61, 2-chloro-N-[2-(4,4-difluoropiperidin-1-yl)-2-(2-methyl-1,3-thiazol-5-yl)ethyl]-5-(5-fluoropyrimidin-2-yl)benzamide]: the IC50 was 280 nM on P2X7 receptor (hP2X7), 124 nM against P2X7 receptor [1] and 56.3 nM at P2X7 receptor [2].

`Cc1ncsc1C(CNC(=O)c1cc(-c2ncc(F)cn2)ccc1Cl)N1CCCC(F)(F)C1` (centres unmarked) [Compound 66, 2-chloro-N-[2-(3,3-difluoropiperidin-1-yl)-2-(4-methyl-1,3-thiazol-5-yl)ethyl]-5-(5-fluoropyrimidin-2-yl)benzamide]: the IC50 on P2X7 receptor (hP2X7) was found to be 22 nM; on P2X7 receptor [1], 58 nM; at P2X7 receptor [2] it was 82.5 nM.

On to `Cc1ncsc1C(CNC(=O)c1c(F)cccc1Cl)N1CCC(Oc2ccccc2)CC1` (centres unmarked) [Compound 60, 2-chloro-6-fluoro-N-[2-(4-methyl-1,3-thiazol-5-yl)-2-(4-phenoxypiperidin-1-yl)ethyl]benzamide], for which the results for the half-inhibitory concentration (IC50) at P2X7 receptor (hP2X7), at P2X7 receptor [1] and on P2X7 receptor [2] were 188 nM, 79 nM and 58.9 nM, respectively.

With `Cc1cccc(-c2ccc(Cl)c(C(=O)NCC(c3scnc3C)N3CCC(F)(F)CC3)c2)n1` (centres unmarked) [Compound 74, 2-chloro-N-[2-(4,4-difluoropiperidin-1-yl)-2-(4-methyl-1,3-thiazol-5-yl)ethyl]-5-(6-methylpyridin-2-yl)benzamide], the IC50 on P2X7 receptor (hP2X7) was 55 nM; at P2X7 receptor [1], 87 nM; on P2X7 receptor [2], 65.2 nM.

`Cc1cccc(C)c1C(=O)NCC(c1cncs1)N1CCC(F)(F)CC1` (centres unmarked) [Compound 14, N-[2-(4,4-difluoropiperidin-1-yl)-2-(1,3-thiazol-5-yl)ethyl]-2,6-dimethylbenzamide]: the IC50 on P2X7 receptor (hP2X7) was 27 nM; against P2X7 receptor [1], 24 nM; on P2X7 receptor [2], 22.7 nM.

Take `O=C(NCC(c1cnco1)N1CCC(F)(F)CC1)c1cc(-c2ncc(F)cn2)ccc1Cl` (centres unmarked) [Compound 47, 2-chloro-N-[2-(4,4-difluoropiperidin-1-yl)-2-(1,3-oxazol-5-yl)ethyl]-5-(5-fluoropyrimidin-2-yl)benzamide]: the results for the IC50 at P2X7 receptor (hP2X7), at P2X7 receptor [1] and on P2X7 receptor [2] were 43 nM, 36 nM and 33.9 nM, respectively.
